Data taken from patent US20200179341A1, “METHODS AND COMPOSITIONS FOR TREATING MULTIPLE MYELOMA AND INCREASING ANTIBODY DEPENDENT CELL CYTOTOXICITY BY TARGETING THE ARYL HYDROCARBON RECEPTOR” (priority 2016, published 2020).

Key:
MM cell targets = assay: Antibody-mediated ADCC with AHR antagonism (cytotoxicity co-culture); assay type: cell-based
Experimental: A series of in vitro studies are conducted in which immune effector cells and/or MM cell targets are pre-treated with vehicle or CH233191 prior to cytotoxicity co-culture assay. Accounting for the baseline, direct effect of AHR antagonism on MM cell viability, any additive rate of target cell death in the combinatorial condition can be studied, in particular when both effectors and targets are pre-exposed to CH233191. Using validated techniques (Benson Blood 2010), the effects of CH233191 on immune effector cell expansion, expression of activating receptors, and abilities to traffic to, acquire, and lyse MM targets is studied. These experiments are conducted in the presence of therapeutic monoclonal antibodies in order to assess whether AHR antagonism may enhance ADCC-mediated immunotherapy (e.g., Elotuzumab, Daratumumab/Isatuximab/Rituximab/Milatuzumab).

MM cells = assay: Surface expression (MFI) of MM antigens targetable by therapeutic monoclonal antibodies after AHR inhibition; assay type: cell-based
Experimental: AHR antagonism enhances MM expression of antigens targetable by therapeutic monoclonal antibodies. […] Accordingly, NK-cell mediated killing of MM tumor cells is tested by combining AHR antagonism of effector cells and MM targets with therapeutic monoclonal antibodies.

MM tumor cell burden = assay: CH233191 by oral gavage in a disseminated murine MM model
NK cell precursors [1] = assay: NK cell development and function from AHR-expressing innate lymphoid cell precursors; assay type: cell-based; conditions: compared to control and AHR agonist (FICZ) treated cells; FIG. 2
NK cell precursors [2] = conditions: Roeven Blood 2014; cited from earlier work

SMILES | Elotuzumab-mediated ADCC (MM cell targets; FIG. 9, with Elotuzumab) | Daratumumab-mediated ADCC (MM cell targets; FIG. 10, with Daratumumab) | MFI (CH233191), CD20 (MM cells; surface antigen CD20, antibody Rituximab, DMSO control MFI 321) | MFI (CH233191), CD38 (MM cells; surface antigen CD38, antibodies Daratumumab, Isatuximab, DMSO control MFI 2959) | MFI (CH233191), CD74 (MM cells; surface antigen CD74, antibody Milatuzumab, DMSO control MFI 761) | MFI (CH233191), SLAMF7 (CS1) (MM cells; surface antigen SLAMF7 (CS1), antibody Elotuzumab, DMSO control MFI 1946) | oral bioavailability (MM tumor cell burden; difficulties with solubilization in corn oil for gavage) | apparent reduction in MM tumor cell burden (MM tumor cell burden; oral gavage in corn oil, versus vehicle-treated controls) | survival outcome (MM tumor cell burden; oral gavage, disseminated murine MM model) | acquisition of cytokine production and cytotoxicity capabilities (NK cell precursors [1]) | acquisition of NK cell function (corroboration) (NK cell precursors [2])
Cc1ccccc1N=Nc1ccc(NC(=O)c2ccnn2C)c(C)c1 [CH233191] | appears to enhance | appears to enhance | 753 | 6110 | 1367 | 2999 | questionable | 2 of 5 | all mice died of progressive MM | rapid acquisition of cytokine production as well as cytotoxicity capabilities | 
CC(C)n1cnc2c(NCCc3ccc(O)cc3)nc(-c3csc4ccccc34)nc21 [Stemreginin 1] |  |  |  |  |  |  |  |  |  |  | corroborated this finding
